Measured values reported in patent US5554359A, “Pigmentation enhancer and method” (priority 1994, dated 1996).

How the values were obtained:
[1] = tested on: tyrosinase activity in human melanocytes from white-skinned individuals; assay: Tyrosinase activity in human melanocytes from white skin; assay type: cell-based; conditions: cell strain 69W; up to four hours; FIG. 8
Protocol: (§1) The mouse melanoma cell lines used to study the effects of lysosomotropic agents herein were the Cloudman S91 cell line (ATCC no. CCL 53.1) and two subclones of this line developed in our laboratory, the amelanotic line, AM-7, and a melanotic line, MEL-11A. All melanoma cell lines were grown in Ham's F-10 nutrient medium supplemented with 10% horse serum, penicillin (100 units/ml), and streptomycin (100 μg/ml). The normal human melanocyte cell strains used in this study were derived from foreskins of either neonares or from boys 2-6 years old. Human melanocyte cultures were grown in Ham's F-10 nutrient medium supplemented with 10% horse serum, 5% fetal bovine serum (FBS), 32 nM TPA (12-O-tetradecanoylphorbol 13-acetate), 10^-4 M IBMX(3-isobutyl-1-methylxanthine), penicillin (100 units/ml), and streptomycin (100 μg/ml).
(§2) To determine tyrosinase activity in situ in either melanoma cells or in human melanocyte cultures, the tyrosine hydroxylase activity of the enzyme was determined. Cells were seeded into 60-mm culture dishes at 2×10^5 cells/dish and allowed to attach overnight. The medium was then exchanged for the appropriate growth medium supplemented with 1 μCi/ml of [^3 H]tyrosine (L-ring-3,5-^3 H]-tyrosine, DuPont New England Nuclear), and with hormones, where indicated. Cells were grown in labeled medium for 24 hours, and at this time, the medium was removed and assayed for the presence of ^3 H2 O using the charcoal absorption method of Pomerantz. Tyrosinase activity in cell homogenates was determined by sonicating cell pellets in 0.1-M sodium phosphate buffer (pH 6.8) and then incubating 50-μl aliquots in 0.5 ml of a reaction mixture containing 0.1-mM tyrosine, 2 μCi/ml of [^3 H]tyrosine, 0.1-mM L-DOPA (dihydroxyphenylalanine), and 0.1 mM PMSF (phenylmethylsulfonyl fluoride) at 37° C. for 2 hours. Reactions were terminated by the addition of 1 ml of charcoal (10% w/v in 0.1-N HCl). Samples were centrifuged, and the supernatants removed for determination of the amount of ^3 H2 O produced.
Dose/response parameters for ammonium chloride action were determined. […] Since tyrosinase is the rate-limiting enzyme for melanin synthesis, the stimulation of this enzyme by ammonium chloride should lead to increased melanin content of stimulated cells. […] Ammonium chloride increased tyrosinase activity in melanocytes from white-skinned individuals twenty-fold within 24 hours and by this time melanin contents had increased two-fold. Two other lysosomotropic agents, monensin and nigericin, were tested for their effects on tyrosinase activity. […] Thus, lysosomotropic agents have the ability to stimulate tyrosinase activity and melanin production in human melanocytes derived from white-skinned individuals, and to reduce melanin production in melanocytes from black-skinned people.

[2] = tested on: tyrosinase activity in mouse melanoma cells; assay: Tyrosinase responses in mouse melanoma cells (Table 6); assay type: cell-based; conditions: Table 6; 10^-7 M except IBMX 10^-4 M, theophylline 1 mM, ammonium chloride 10 mM, A23187 not given
Protocol: as §1
as §2, with “produced. […]” for “produced.”

[3] = tested on: tyrosinase activity in human melanocytes; assay: Tyrosinase responses in human melanocytes (Table 6); assay type: cell-based; conditions: Table 6; 10^-7 M except IBMX 10^-4 M, theophylline 1 mM, ammonium chloride 10 mM, A23187 not given; melanocytes from skin type III
Protocol: as §1, §2
Hormone responsiveness in human melanocyte cell cultures were examined (for these studies, melanocytes derived from skin type III were used). […] Tyrosinase activity and melanin content typically double with a 48-hour exposure to IBMX. […] The steroid hormones, for the most part, caused little, if any, change in tyrosinase activity at the concentrations used.

[4] = tested on: tyrosinase activity in mouse melanoma cells; conditions: Cloudman S91; cited from earlier work
[5] = tested on: tyrosinase activity in human foreskin organ cultures; assay: Tyrosinase activity in human foreskin organ cultures (tyrosine hydroxylase assay); assay type: cell-based
Protocol: At the time of surgical removal, human foreskins were placed on sterile gauze saturated with sterile IMDM medium (Iscove's modified Dulbecco's medium purchased from Irvine Scientific of Santa Ana, Calif.) for transportation from the Hospital nursery to the laboratory. The tissues were rinsed in sterile IMDM medium containing 500 U/ml penicillin and 500 μg/ml of streptomycin for 5 minutes. Under sterile conditions, an intradermal injection of medium was performed from the dermal side prior to dissection of the mucous membrane and lower dermis by scissors to make the thickness of skins equal. The foreskins were then cut into approximately 3 mm×3 mm squares and either frozen at -75° C. or placed in organ culture as described hereafter.
The organ culture medium was prepared from IMDM with glutamine supplemented with 20% horse serum, 5% fetal bovine serum, 100 U/ml penicillin, 100 μg/ml streptomycin and 3 mg/ml sodium bicarbonate. The serums were obtained from Hyclone Lab. Inc. of Logan Utah. Culture units were prepared by placing sterilized filters (AP20 025 00, Millipore) over sterilized support screens ([…] Swinnex filter support screens, Millipore) in the wells of 6-well tissue culture plates (Falcon 3046) with medium added to the wells such that the skin support screens floated and the filter absorbed the medium from beneath. The tissue samples were placed, epidermis up, on top of the saturated filters and incubated at 37° C. in a 5% CO2 humidified atmosphere. The medium was changed everyday. Harvested cultures were frozen at -75° C.
Tyrosinase activity in human skin organ cultures was determined by measuring the tyrosine hydroxylase activity of the enzyme. The assay measures the production of ^3 H2 O during the conversion of [^3 H]tyrosine to L-DOPA. Weighed skin preparations were incubated in 0.3 ml of a reaction mixture containing 0.01 mM of L-tyrosine, 5-6 uCi/ml of [^3 H]tyrosine and 0.1 mM L-DOPA in 0.1M of pH 6.8 phosphate buffer for 4 hours at 37° C. To terminate the reaction, 1 ml of phosphate buffer was added, the tubes vortexed, and 0.4 ml aliquots removed in triplicate and mixed with an equal volume of Norit SG activated charcoal (10% w/v, in 0.1N HCl). Following centrifugation at 2000×g for 10 min, the supernatants (0.5 ml) were placed in scintillation vials, scintillation fluid added, and vials counted in a TM Analytic 6895 scintillation counter equipped with a DPM processor.
Human foreskins were treated with the compounds shown in Table 1, placed in culture, and incubated for 72 hours. The skins were then assayed for tyrosinase activity with the tyrosine hydroxylase assay method as described herein.
The medium and compounds were changed daily. Tyrosinase activity was determined by measuring the tyrosine hydroxylase activity of the enzyme.
Human foreskin organ cultures were treated with the compounds listed in Table 3 for 3 days and tyrosinase activity determined as described herein. Theophylline was used at 1 mM.

[6] = Table 1, B = black, 72 h, Theophylline 1 mM, MSH 2 × 10^-7 M, dbcAMP 0.1 mM, D-phe-MSH 10^-8 M
[7] = Table 1, W = white, 72 h, Theophylline 1 mM, MSH 2 × 10^-7 M, dbcAMP 0.1 mM, D-phe-MSH 10^-8 M

Molecule	Effect on Tyrosinase Activity, Mouse Melanoma [2]	Effect on Tyrosinase Activity, Human Melanocyte [3]	also measured
CO[C@@H]1C[C@@H](C[C@H]2CC[C@H](C)[C@H]([C@@H](C)C(=O)O)O2)O[C@]2(O[C@](C)([C@H]3CC[C@@](C)([C@@H]4O[C@@H]([C@H]5O[C@@](O)(CO)[C@H](C)C[C@@H]5C)C[C@@H]4C)O3)C[C@H]2C)[C@@H]1C [nigericin]	–	–	stimulation of tyrosinase activity [1]: stimulated tyrosinase activity
C=C1CC[C@H](O)C/C1=C/C=C1\CCC[C@]2(C)[C@@H]([C@H](C)CCCC(C)C)CC[C@@H]12 [Vitamin D3]	No effect	No effect	–
CC[C@@]1([C@@H]2O[C@@H]([C@H]3O[C@@](O)(CO)[C@H](C)C[C@@H]3C)C[C@@H]2C)CC[C@H]([C@]2(C)CC[C@]3(C[C@H](O)[C@@H](C)[C@@H]([C@@H](C)[C@@H](OC)[C@H](C)C(=O)O)O3)O2)O1 [monensin]	–	–	stimulation of tyrosinase activity [1]: stimulated tyrosinase activity
CCCCCCCCCCCCCC(=O)O[C@@H]1[C@@H](C)[C@@]2(O)[C@@H](C=C(CO)C[C@]3(O)C(=O)C(C)=C[C@@H]23)[C@@H]2C(C)(C)[C@]12OC(C)=O [TPA, 12-O-tetradecanoylphorbol 13-acetate]	–	No effect	–
CC(=O)[C@H]1CC[C@H]2[C@@H]3CCC4=CC(=O)CC[C@]4(C)[C@H]3CC[C@]12C [Progesterone]	± (100-150% of control)	± (100-150% of control)	–
C[C@]12CC[C@@H]3c4ccc(O)cc4CC[C@H]3[C@@H]1CC[C@@H]2O [Estradiol]	No Effect	Inhibited	–
C[C@]12CC[C@H]3[C@@H](CCC4=CC(=O)CC[C@@]43C)[C@@H]1CC[C@@H]2O [Testosterone]	No effect	No effect	–
Nc1ncnc2c1nc(Br)n2[C@@H]1O[C@@H]2COP(=O)(O)O[C@H]2[C@H]1O [8-bromo cAMP]	–	–	mimicking of the MSH response [4]: mimicked
CCCC(=O)Nc1ncnc2c1ncn2[C@@H]1O[C@@H]2COP(=O)(O)O[C@H]2[C@H]1OC(=O)CCC [dbcAMP, dibutyryl cyclic AMP]	–	–	Tyrosinase activity stimulated, percentage of black foreskins [5, 6]: 33%; Tyrosinase activity unaffected, percentage of black foreskins [5, 6]: 67%; Tyrosinase activity stimulated, percentage of white foreskins [5, 7]: 25%; Tyrosinase activity unaffected, percentage of white foreskins [5, 7]: 75%; stimulation of tyrosinase activity ([5]; human foreskins, 72 hours): less effective in stimulating tyrosinase activity; mimicking of the MSH response [4]: mimicked
CCCCC[C@H](O)/C=C/[C@H]1[C@H](O)CC(=O)[C@@H]1CCCCCCC(=O)O [Prostaglandin E1]	–	+ (150-200%)	–
CC1(C)O[C@@H]2C[C@H]3[C@@H]4CCC5=CC(=O)C=C[C@]5(C)[C@@]4(F)[C@@H](O)C[C@]3(C)[C@]2(C(=O)CO)O1 [Triamcinolone acetonide]	± (100-150% of control)	± (100-150% of control)	–
Insulin: Insulin	–	No effect	–
CNc1ccc2oc(C[C@H]3O[C@@]4(CC[C@H]3C)O[C@H]([C@H](C)C(=O)c3ccc[nH]3)[C@H](C)C[C@H]4C)nc2c1C(=O)O [A23187]	Inhibited	No effect	–
